From patent US20040115626A1, “Human pgc-1 promoter” (priority 2000, published 2004)

How the values were obtained:
hPGC-1 promoter = hPGC-1 promoter luciferase reporter assay in transiently transfected L6 cells; type: cell-based; conditions: for activity at 1 µM: 1 μM compound; for activity at 1 µM / activity at 5 µM / activity at 25 µM: reporter vector phPGC1(2.2)Luc, luciferase activity relative to no compound; for activity at 5 µM: 5 μM compound; for activity at 25 µM: 25 μM compound; for promoter activating ability relative to the case of adding no compound: at compound final concentration of 1 μM, 5 μM or 25 μM, phPGC1(2.2)Luc
Procedure: Various reporter vectors shown in FIG. 1 were transiently transfected into L6 cells. Specifically, L6 cells were cultured in a tissue culture dish having a diameter of 10 cm and at the time when it was reached 50% confluent, 5 μg of the above plasmid and 1.5 μg of a plasmid pCH110 containing β-galactosidase gene controlled by β-actin promoter were used in combination in order to standardize gene transfection efficiency and the plasmids were introduced into the cells using FuGENE™6 (BOEHRINGER MANNHEIM, USA, 1814 443). After 24 hours, the cells were transferred into a 96-well culture dish, followed by additional 6 hours of culture. From the reports until now, since it is known that 9-cis-RETINOIC ACID (one of vitamin A acids) increases the expression of PGC-1 gene derived from mouse in cells (Cell, 92, 829-839 (1998)), 9-cis-RETINOIC ACID (SIGMA, USA, R4643) having a final concentration of 1 μM was added and the mixture was treated for 24 hours. Then, the cells were dissolved with a cell dissolving liquid LCβ (Toyo Ink, Japan) and luciferase activity thereof was measured using a PicaGene Luminescent Kit (Toyo Ink, Japan, 309-04321). By the way, all the activity measurements were carried out three times per measurement and each experiment was repeated at least twice to confirm the reproducibility.
Each reporter activity was standardized by β-galactosidase activity and expressed by a relative value wherein the value in the case of adding no compound was regarded as 1. In L6 cells, hPGC-1 reporter was increased a maximum of about 2.5 times by the treatment with 9-cis-RETINOIC ACID and thus a result consistent with the report that the expression of PGC-1 gene derived from mouse was enhanced by 9-cis-RETINOIC ACID was obtained.
Using the reporter vector phPGC1(2.2)Luc in the method described in Example 5, screening of a compound stimulating an hPGC-1 promoter activity was carried out wherein commercially available compounds were used as test compounds. […] By the way, Compound B, Compound E and Compound G are commercially available as the code number 4K@UH1-646 of INTERBIOSCREEN, as the code number MS0447 of MARLIN and as the code number A1773/0075171 of ZELINSKY, respectively and are 5-(4-fluorobenzylidene)-2,4-thiazolidinedione, 5-(4-bromobenzylidene)-2,4-thiazolidinedione, 2-(3-aminophenyl)-5-benzoyl-(1H)-benzimidazole, respectively.

L6 cells = assay: Measurement of mitochondrial enzymatic activity (WST-1 mitochondrial dehydrogenase colorimetric assay) in L6 cells; type: cell-based, rat; conditions: for activity at 1 µM / activity at 5 µM / activity at 25 µM: Rattus norvegicus, 24 hours, relative to no compound
Procedure: Rat myoblast L6 (ATCC, CRL-1458) was maintained Dulbecco's modified Eagle medium containing 10% fetal bovine serum (GIBCO BRL, USA, 11965-092) and cultured in a wet air containing 5% CO2 at 37° C.
For the investigation of mitochondrial enzymatic activity of cells, a reagent WST-1 (DOJINDO, 342-06451) was used, which enabled the measurement of mitochondrial dehydrogenase activity of living cells by colorimetric assay method. Specifically, L6 cells were cultured in a tissue culture dish having a diameter of 10 cm and after reached confluent, the cells were transferred into a 96-well tissue culture dish. At that time, the medium was changed to Dulbecco's modified Eagle medium containing no Phenol Red (GIBCO BRL, USA, 21063-029). […] After the addition of each compound and 24 hours of treatment, the medium containing the compound was sucked and discarded and thereto were added 100 μl of Dulbecco's modified Eagle medium containing no Phenol Red and no fetal bovine serum and 10 μL of PBS containing 5 mM WST-1 and 0.2 mM 1-Methoxy PMS (DOJINDO, 345-04001). After 4 hours of reaction at 37° C., absorbance was measured at a measuring wavelength of 450 nm. In this regard, all the activity measurements were carried out three times per measurement and each experiment was repeated at least twice to confirm the reproducibility.
Tables 2(a) and 2(b) show the results of 9-cis-RETINOIC ACID and the compounds obtained in Example 6, respectively. Each value was expressed by a relative value wherein the absorbance of the sample containing no cell was subtracted as a background from each absorbance and the value in the case of adding no compound was regarded as 1. […] As mentioned above, it was shown that substances stimulating an hPGC-1 promoter activity have an action to activate mitochondrial enzymes.

Row | Structure (SMILES) | activity at 1 µM (hPGC-1 promoter) [%] | activity at 5 µM (hPGC-1 promoter) [%] | activity at 25 µM (hPGC-1 promoter) [%] | promoter activating ability relative to the case of adding no compound (hPGC-1 promoter) | activity at 1 µM (L6 cells) [%] | activity at 5 µM (L6 cells) [%] | activity at 25 µM (L6 cells) [%] | increase of hPGC-1 reporter activity (maximum) (hPGC-1 promoter; 1 μM, 24 hours, normalized with β-galactosidase, no compound = 1, maximum over the reporter vectors) | reporter activity (hPGC-1 promoter; 1 μM, 24 hours, reporter vector hPGC1(0.1)Luc) | activity enhancement (9-cis-RETINOIC ACID responsibility) of reporter (hPGC-1 promoter; 1 μM, 24 hours, reporter vectors hPGC1(0.2)Luc to hPGC1(5.2)Luc) | mitochondrial enzymatic activity (statement in words) (L6 cells; 24 hours treatment, Dunnett test)
1 | O=C1NC(=O)C(=Cc2ccc(Br)cc2)S1 [Compound E, 5-(4-bromobenzylidene)-2,4-thiazolidinedione] | 146 | 208 | 157 | more than twice | 102 | 141 | 285 | – | – | – | –
2 | O=C1NC(=O)C(=Cc2ccc(F)cc2)S1 [Compound B, 5-(4-fluorobenzylidene)-2,4-thiazolidinedione] | 160 | 203 | 202 | more than twice | 94 | 121 | 175 | – | – | – | –
3 | CC1=C(/C=C/C(C)=C\C=C\C(C)=C\C(=O)O)C(C)(C)CCC1 [9-cis-RETINOIC ACID, reference compound] | – | – | – | – | – | – | – | about 2.5 times | completely lost | strongly observed | increased mitochondrial enzymatic activity with a significant difference
4 | Nc1cccc(-c2nc3cc(C(=O)c4ccccc4)ccc3[nH]2)c1 [Compound G, 2-(3-aminophenyl)-5-benzoyl-(1H)-benzimidazole] | 207 | 175 | 91 | more than twice | 80 | 102 | 176 | – | – | – | –
